This note sets out measurements from US8299021B2, “Macrocyclic inhibitors of hepatitis C virus replication” (InterMune, Inc., priority 2005, dated 2012).

Molecules are shown by their SMILES. Read-outs that look alike come from different tables or passages of the source. Some results are limits rather than exact numbers.

Experiment [1] deals with HCV sub-genomic replicon GS4.3 (HuH-7 hepatoma cells). Briefly: Quantitation by ELISA of neomycin phosphotransferase II (NPTII) in the HCV sub-genomic replicon, GS4.3. The class given is cell-based. As to conditions: GS4.3 cells, 72 h, read-out: Replicon EC50. The source says:
Quantitation by ELISA of the Selectable Marker Protein, Neomycin Phosphotransferase II (NPTII) in the HCV Sub-Genomic Replicon, GS4.3
The HCV sub-genomic replicon (1377/NS3-3′, accession No. AJ242652), stably maintained in HuH-7 hepatoma cells, was created by Lohmann et al. Science 285: 110-113 (1999). The replicon-containing cell culture, designated GS4.3, was obtained from Dr. Christoph Seeger of the Institute for Cancer Research, Fox Chase Cancer Center, Philadelphia, Pa.
GS4.3 cells were maintained at 37° C., 5% CO2, in DMEM (Gibco 11965-092) supplemented with L-glutamine 200 mM (100×) (Gibco25030-081), non-essential amino acids (NEAA)(Biowhittaker 13-114E), heat-inactivated (HI) Fetal Bovine Serum(FBS)(Hyclone SH3007.03) and […] geneticin (G418)(Gibco 10131-035). Cells were sub-divided 1:3 or 4 every 2-3 days.
24 h prior to the assay, GS4.3 cells were collected, counted, and plated in 96-well plates (Costar 3585) at 7500 cells/well in 100 μl standard maintenance medium (above) and incubated in the conditions above. To initiate the assay, culture medium was removed, cells were washed once with PBS (Gibco 10010-023) and 90 μl Assay Medium (DMEM, L-glutamine, NEAA, 10% HI FBS, no G418) was added. Inhibitors were made as a 10× stock in Assay Medium, (3-fold dilutions from 10 μM to […] final concentration, final DMSO concentration 1%), 10 μl were added to duplicate wells, plates were rocked to mix, and incubated as above for 72 h.
An NPTII Elisa kit was obtained from AGDIA, Inc. (Compound direct ELISA test system for Neomycin Phosphotransferase II, PSP 73000/4800). Manufacturer's instructions were followed, with some modifications. 10×PEB-1 lysis buffer was made up to include 500 μM PMSF (Sigma P7626, 50 mM stock in isopropanol). After 72 h incubation, cells were washed once with PBS and 150 μlPEB-1 with PMSF was added per well. Plates were agitated vigorously for 15 minutes, room temperature, then frozen at −70° C. Plates were thawed, lysates were mixed thoroughly, and 100 μl were applied to an NPTII Elisa plate. A standard curve was made. Lysate from DMSO-treated control cells was pooled, serially diluted with PEB-1 with PMSF, and applied to duplicate wells of the ELISA plate, in a range of initial lysate amount of 150 ul-2.5 ul. In addition, 100 μl buffer alone was applied in duplicate as a blank. Plates were sealed and gently agitated at room temperature for 2 h. Following capture incubation, the plates were washed 5×300 μlwith PBS-T (0.5% Tween-20, PBS-T was supplied in the ELISA kit). For detection, a 1× dilution of enzyme conjugate diluent MRS-2 (5×) was made in PBS-T, into which 1:100 dilutions of enzyme conjugates A and B were added, as per instructions. Plates were resealed, and incubated with agitation, covered, room temperature, for 2 h. The washing was then repeated and 100 μlof room temperature TMB substrate was added. After approximately 30 minutes incubation (room temperature, agitation, covered), the reaction was stopped with 50 μl 3M sulfuric acid. Plates were read at 450 nm on a Molecular Devices Versamax plate reader.
Inhibitor effect was expressed as a percentage of DMSO-treated control signal, and inhibition curves were calculated using a 4-parameter equation: y=A+4B-A)/(1+((C/x)^13))), where C is half-maximal activity or EC50.

Experiment [2] concerns the target T1, NS3-NS4 protease (full-length NS3/NS4A-2) (Hepatitis C virus genotype 1a, UniProt P27958).
T1 construct: Recombinant E. coli or Baculovirus full-length NS3 was diluted to 3.33 μM with assay buffer; made in house; host or cells: E. coli or baculovirus (insect cells)
Briefly: NS3-NS4 protease assay / NS3 inhibition assay (RETS1 substrate, fluorescence kinetic read). Format: biochemical. As to conditions: read-out: NS3-NS4 IC50.

T1 sequence (P27958 1027-1657): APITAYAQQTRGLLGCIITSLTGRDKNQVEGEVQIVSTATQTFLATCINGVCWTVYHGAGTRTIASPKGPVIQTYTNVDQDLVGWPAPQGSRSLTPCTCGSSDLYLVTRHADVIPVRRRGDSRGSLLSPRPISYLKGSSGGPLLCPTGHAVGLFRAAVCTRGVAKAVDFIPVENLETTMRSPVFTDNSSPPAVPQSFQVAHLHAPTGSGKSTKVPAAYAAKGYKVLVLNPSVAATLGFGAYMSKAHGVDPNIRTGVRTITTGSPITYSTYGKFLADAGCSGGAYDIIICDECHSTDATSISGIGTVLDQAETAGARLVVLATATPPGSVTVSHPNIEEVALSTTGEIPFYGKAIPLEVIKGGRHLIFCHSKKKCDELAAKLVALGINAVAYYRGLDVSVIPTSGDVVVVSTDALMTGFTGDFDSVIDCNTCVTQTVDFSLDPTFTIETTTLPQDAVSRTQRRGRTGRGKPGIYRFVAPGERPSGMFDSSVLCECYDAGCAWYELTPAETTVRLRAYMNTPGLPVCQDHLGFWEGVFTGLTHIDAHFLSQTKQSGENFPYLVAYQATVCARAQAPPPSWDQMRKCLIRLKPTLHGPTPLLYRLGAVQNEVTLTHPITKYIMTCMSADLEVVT

For the compound `CC(C)(C)OC(=O)N[C@H]1CCCOC/C=C\[C@@H]2C[C@@]2(C(=O)NS(=O)(=O)C2CC2)NC(=O)[C@@H]2C[C@@H](OC(=O)N3Cc4cccc(F)c4C3)CN2C1=O` [Compound 1021, (2R,6S,13aS,14aR,16aS,Z)-6-(tert-butoxycarbonylamino)-14a-(cyclopropylsulfonylcarbamoyl)-5,16-dioxo-2,3,5,6,7,8,9,11,13a,14,14a,15,16,16a-tetradecahydro-1H-cyclopropa(e)pyrrolo[2,1-i][1,7,10]oxadiazacyclopentadecin-2-yl 4-fluoroisoindoline-2-carboxylate], in experiment [1], the half-maximal effective concentration (EC50) is greater than 10 µM. Moreover, the IC50 in experiment [2] was less than 10 µM.

With `CC(C)(C)OC(=O)N[C@H]1CCCCC/C=C\[C@@H]2C[C@@]2(C(=O)NC(=O)c2ccccc2)NC(=O)[C@@H]2C[C@@H](OC(=O)N3Cc4ccccc4C3)CC2C1=O` (stereo partly shown) [Compound 705], in experiment [1] (Hepatitis C virus, Huh-7), the EC50 is less than 0.1 µM. In addition, the 50% inhibitory concentration (IC50) in experiment [2] was less than 0.1 µM.

By EC50 is commonly meant the midpoint of the concentration-response curve. The IC50 is the point on the concentration scale where inhibition reaches its midpoint.
